# Like-named read-outs stand apart in the source and are kept apart here.
# Tests used:
# [1] = test system: P. aeruginosa PAO1; experiment: MIC of antibiotics against P. aeruginosa PAO1 with or without polyamines; format: cell-based; conditions: for MIC values in the presence versus the absence of polyamines: hydrophobic antibiotics (FIG. 1)
# Protocol: (§1) Various strains of bacteria, including P. aeruginosa and e. coli were grown on Luria-Bertani (LB) agar/broth or Mueller-Hinton (MH) agar/broth. […] The antibiotics, chemicals, and/or polyamines were dissolved in double distilled water or solvent and thereafter filtered through a 0.4 μm disposable membranes.
# (§2) The MIC values of the strains associated with various combinations of polyamines and antibiotics were determined using standard two-fold agar dilutions techniques and broth dilutions techniques in Mueller-Hinton broth. The lowest concentration of drug with no visible turbidity was deemed the MIC.
# [2] = test system: outer membrane permeability; experiment: Outer membrane permeabilization assay (β-lactamase activity in whole cells or released into suspension); format: cell-based; conditions: for β-lactamase activity detected: 20 mM (FIG. 7)
# Protocol: The β-lactamase activity was determined by a spectrophotometric method using nitrocefin as a substrate. After the β-lactamase was extracted from the cells, the β-lactamase activity was monitored by absorbance changes in wavelength at 486 nm with a molar extinction coefficient of 20500. The extent of hydrolysis was a reflection of the amount of enzyme remaining uninhibited.
# An outer membrane permeabilization assay was performed by examining the release of the chromosomally encoded β-lactamase. Briefly, stationary phase cells were diluted 1:59 into 20 mL pre-warmed MMP broth and cultured in an incubator at 350 rpm and at 37 C for 5 hours. After carbenicillin (200 μg/mL) was added to induce β-lactamase activity, the culture was incubated for additional 5 hours. The cells were harvested by centrifugation at 5,000×g for 10 minutes and washed once with 0.05M sodium phosphate buffer at pH 7.2. The cell pellet was resuspended in 5 mL of the same buffer and divided into 1 mL aliquots. […] […] The reaction mixtures were incubated at room temperature for 5 minutes and immediately centrifuged at full speed (15000×g) for 20 minutes and the supernatant was used for β-lactamase sources. β-lactamase activity was determined as described above using 300 μL of the supernatant.
# [3] = test system: E. coli (K10, K12, C921-61); experiment: MIC of antibiotics against E. coli strains with or without polyamines (FIG. 3); format: cell-based; conditions: E. coli K10, K12, C921-61 and S. typhimurium LT2
# Protocol: as §1, §2
# [4] = test system: Salmonella typhimurium LT2; conditions: for MICs in the indicated concentrations (mM) of polyamines: Spermine (1 mM): with 1 mM spermine; for MICs in the indicated concentrations (mM) of polyamines: Spermidine (20 mM): with 20 mM spermidine;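 as to all read-outs here: Two-fold agar or broth dilution in Mueller-Hinton broth, MIC taken as lowest drug concentration without visible turbidity, tested alone or combined with polyamines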
# Protocol: as §1, §2
# [5] = test system: Salmonella typhimurium LT2; experiment: microbe, parasite or virus in culture; conditions: Salmonella enterica, read-out: MICs in the indicated concentrations (mM) of polyamines: No add;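 also: Two-fold agar or broth dilution in Mueller-Hinton broth, MIC taken as lowest drug concentration without visible turbidity, tested alone or combined with polyamines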
# Protocol: as §1, §2
# [6] = test system: methicillin resistant Staphylococcus aureus (MRSA) Mu50; experiment: MIC of antibiotics against MRSA Mu50 with or without spermine; format: cell-based; conditions: for MICs in the presence or absence of spermine (1 mM): Spermine: with 1 mM spermine
# [7] = test system: P. aeruginosa PAO1; experiment: Time killing assay of P. aeruginosa PAO1 in human serum (FIG. 4); format: cell-based
# Protocol: Time-killing assays were performed for various bacteria samples. Briefly, the tested bacteria were grown to mid-log phase in Mueller-Hinton broth media. […] As a control group, cells were diluted in a sodium phosphate without any additional compounds. Aliquots were withdrawn at specific time intervals and spread on LB agar plates and incubated overnight at 37 C. The percent of colonies that survived were determined relative to the control.
# [8] = test system: E. coli K10; experiment: MIC of carbenicillin against E. coli K10 with divalent ions or salt and polyamines; format: cell-based; conditions: Escherichia coli, read-out: MICs to carbenicillin
# Protocol: as §1, §2
# [9] = test system: MRSA Staphylococcus aureus 700699; experiment: MIC of antibiotics against MRSA Staphylococcus aureus 700699 with or without spermine; format: cell-based
molecule,measurement,setting,value
NCCCCNCCCN [Spermidine],MICs to carbenicillin in the indicated concentration of polyamines,[1]; 0 mM polyamine,64 µg/mL
same,MICs to carbenicillin in the indicated concentration of polyamines,[1]; 0.5 mM polyamine,32 µg/mL
same,MICs to carbenicillin in the indicated concentration of polyamines,[1]; 1 mM polyamine,16 µg/mL
same,MICs to carbenicillin in the indicated concentration of polyamines,[1]; 5 mM polyamine,16 µg/mL
same,MICs to carbenicillin in the indicated concentration of polyamines,[1]; 10 mM polyamine,8 µg/mL
same,MICs to carbenicillin in the indicated concentration of polyamines,[1]; 20 mM polyamine,4 µg/mL
same,β-lactamase activity detected,[2],only a very low level
CO[C@@H]1[C@@H](OC(N)=O)[C@@H](O)[C@H](Oc2ccc3c(O)c(NC(=O)c4ccc(O)c(CC=C(C)C)c4)c(=O)oc3c2C)OC1(C)C [Novobiocin],MIC values in the presence versus the absence of polyamines,[1],identical
same,susceptibility with the combination of polyamines and antibiotics,[3],improved susceptibility
same,MICs in the indicated concentrations (mM) of polyamines: Spermine (1 mM),[4],1024 µg/mL
same,MICs in the indicated concentrations (mM) of polyamines: Spermidine (20 mM),[4],256 µg/mL
same,MIC,[5],> 1020 mg/L
Polymyxin B,MICs in the presence or absence of spermine (1 mM): Spermine,[6],64 µg/mL
same,β-lactamase activities detected in the whole cells,[2]; 100 μg/mL applied to the cell suspension (FIG. 5),significant activities
CC[C@H]1OC(=O)[C@H](C)[C@@H](O[C@H]2C[C@@](C)(OC)[C@@H](O)[C@H](C)O2)[C@H](C)[C@@H](O[C@@H]2O[C@H](C)C[C@H](N(C)C)[C@H]2O)[C@](C)(O)C[C@@H](C)C(=O)[C@H](C)[C@@H](O)[C@]1(C)O [Erythromycin],MIC values in the presence versus the absence of polyamines,[1],identical
same,susceptibility with the combination of polyamines and antibiotics,[3],improved susceptibility
same,MICs in the indicated concentrations (mM) of polyamines: Spermine (1 mM),[4],32 µg/mL
same,MICs in the indicated concentrations (mM) of polyamines: Spermidine (20 mM),[4],64 µg/mL
same,MIC,[5],64 mg/L
CC(=O)O[C@H]1C[C@@]2(C)[C@@H](C[C@@H](O)[C@H]3[C@@]4(C)CC[C@@H](O)[C@@H](C)[C@@H]4CC[C@@]32C)/C1=C(\CCC=C(C)C)C(=O)O [Fusidic acid],MIC values in the presence versus the absence of polyamines,[1],identical
same,susceptibility with the combination of polyamines and antibiotics,[3],improved susceptibility
same,MICs in the indicated concentrations (mM) of polyamines: Spermine (1 mM),[4],1024 µg/mL
same,MICs in the indicated concentrations (mM) of polyamines: Spermidine (20 mM),[4],1024 µg/mL
same,MIC,[5],> 1020 mg/L
NCCCNCCCCNCCCN [Spermine],MICs to carbenicillin in the indicated concentration of polyamines,[1]; 0 mM polyamine,64 µg/mL
same,MICs to carbenicillin in the indicated concentration of polyamines,[1]; 0.5 mM polyamine,16 µg/mL
same,MICs to carbenicillin in the indicated concentration of polyamines,[1]; 1 mM polyamine,4 µg/mL
same,MICs to carbenicillin in the indicated concentration of polyamines,[1]; 5 mM polyamine,4 µg/mL
same,MICs to carbenicillin in the indicated concentration of polyamines,[1]; 10 mM polyamine,4 µg/mL
same,MICs to carbenicillin in the indicated concentration of polyamines,[1]; 20 mM polyamine,4 µg/mL
same,growth of P. aeruginosa PAO1 in human serum,[7]; presence or absence of 2 mM spermine,not affected
same,β-lactamase activity detected,[2],only a very low level
O=C(O)CN(CCN(CC(=O)O)CC(=O)O)CC(=O)O [EDTA],release of periplasmic β-lactamase into the suspension solution,[2]; 0.5 mM (FIG. 6),can be detected
same,release of periplasmic β-lactamase into the suspension solution,[2]; 1 mM (FIG. 6),increased
CC1(C)S[C@@H]2[C@H](NC(=O)C(C(=O)O)c3ccccc3)C(=O)N2[C@H]1C(=O)O (some centres unmarked) [Carbenicillin],MIC,"[6]; Staphylococcus aureus, MRSA, no spermine, read-out: MICs in the presence or absence of spermine (1 mM): No add",256 mg/L
same,MICs in the presence or absence of spermine (1 mM): Spermine,[6],4 µg/mL
same,MIC,"[8]; K10, MHB + 1 mM CaCl2, Spermidine (10 mM)",2 mg/L
same,MIC,"[8]; K10, MHB + 1 mM CaCl2, Spermine (1 mM)",1 mg/L
same,MIC,"[8]; K10, MHB + 1 mM CaCl2, no polyamine",16 mg/L
same,MIC,"[8]; K10, MHB + 1 mM MgSO4, Spermidine (10 mM)",4 mg/L
same,MIC,"[8]; K10, MHB + 1 mM MgSO4, Spermine (1 mM)",1 mg/L
same,MIC,"[8]; K10, MHB + 1 mM MgSO4, no polyamine",16 mg/L
same,MIC,"[8]; K10, MHB + 3 mM CaCl2, Spermidine (10 mM)",4 mg/L
same,MIC,"[8]; K10, MHB + 3 mM CaCl2, Spermine (1 mM)",4 mg/L
same,MIC,"[8]; K10, MHB + 3 mM CaCl2, no polyamine",16 mg/L
same,MIC,"[8]; K10, MHB + 3 mM MgSO4, Spermidine (10 mM)",4 mg/L
same,MIC,"[8]; K10, MHB + 3 mM MgSO4, Spermine (1 mM)",4 mg/L
same,MIC,"[8]; K10, MHB + 3 mM MgSO4, no polyamine",16 mg/L
same,MIC,"[8]; K10, MHB + 100 mM NaCl, Spermidine (10 mM)",4 mg/L
same,MIC,"[8]; K10, MHB + 100 mM NaCl, Spermine (1 mM)",4 mg/L
same,MIC,"[8]; K10, MHB + 100 mM NaCl, no polyamine",16 mg/L
same,MIC,"[8]; K10, MHB + 150 mM NaCl, Spermidine (10 mM)",4 mg/L
same,MIC,"[8]; K10, MHB + 150 mM NaCl, Spermine (1 mM)",4 mg/L
same,MIC,"[8]; K10, MHB + 150 mM NaCl, no polyamine",16 mg/L
same,MIC,"[8]; K10, MHB medium, no supplement, Spermidine (10 mM)",4 mg/L
same,MIC,"[8]; K10, MHB medium, no supplement, Spermine (1 mM)",1 mg/L
same,MIC,"[8]; K10, MHB medium, no supplement, no polyamine",16 mg/L
same,MIC,"[9]; Staphylococcus aureus, MRSA, no spermine, read-out: MICs in the absence or presence of spermine: No add",256 mg/L
same,MICs in the absence or presence of spermine: Spermine (1 mM),[9]; with 1 mM spermine,4 µg/mL
same,susceptibility with the combination of polyamines and antibiotics,[3],improved susceptibility
same,growth of P. aeruginosa PAO1 in human serum,[7]; 16 μg/mL carbenicillin alone,"initial inhibition, this inhibition was followed by a full recovery of growth"
same,percent of the inoculants killed in human serum,"[7]; 2 mM spermine added along with 16 μg/mL carbenicillin, 24 hours",more than 99%
same,MICs in the indicated concentrations (mM) of polyamines: Spermine (1 mM),[4],1 µg/mL
same,MICs in the indicated concentrations (mM) of polyamines: Spermidine (20 mM),[4],2 µg/mL
same,MIC,[5],8 mg/L

# Source: patent publication US20060270648A1, “USE OF POLYAMINES WITH ANTIBIOTICS” (priority 2005, published 2006)
